Laboratory results reported in publication PMC9387934, “Randomized single oral dose phase 1 study of safety, tolerability, and pharmacokinetics of Iminosugar UV-4 Hydrochloride (UV-4B) in healthy subjects” (PLoS Neglected Tropical Diseases, 2022).
“And” between values parts separate entries of the source, which are not always exact repeats. Equal entries are not always repeated.

Assay: Phase 1a single ascending dose study: UV-4 plasma concentrations and PK parameters (LC-MS/MS, noncompartmental)
Assay type: in vivo
Conditions: human plasma
Description: UV-4 ((2R,3R,4R,5S)-2-(hydroxymethyl)-1-(9-methoxynonyl)piperidine-3,4,5-triol, also called N-(9’-methoxynonyl)-1-deoxynojirimycin, or MON-DNJ) hydrochloride was evaluated in a first-in-human, randomized, single-center, double-blind, placebo-controlled, parallel group, single ascending dose Phase 1a clinical trial in healthy subjects (Figs 1 and 2, ClinicalTrials.gov Identifier NCT02061358 https://clinicaltrials.gov/ct2/show/NCT02061358). The primary objective was to determine the safety and tolerability of a single-ascending oral dose of UV-4 hydrochloride (Fig 3). […] The secondary objective was to determine PK parameters describing absorption and elimination of UV-4 following a single oral dose of UV-4 hydrochloride. Eight cohorts of eight subjects each were enrolled and completed the study. In each cohort, six subjects received UV-4 as the hydrochloride; two received placebo. Subjects were screened against study eligibility criteria up to four weeks (Days -28 to -2) before admission to the clinic (Day -1). Dosing was performed on an inpatient basis. Subjects remained in clinic for 48 hours post-dosing for PK sample collection and safety assessments and were discharged from the clinic on Day 3. Subjects returned to the clinic on Day 4 for additional safety assessments, then again on Day 9 ± 1 for a final follow-up visit.
Eligible subjects were healthy males and females, age 18–45 years, with a body mass index between 18 and 30 kg/m^2 inclusive and a minimum body weight of 60 kg. Subjects were considered healthy based on medical history, physical exam, vital signs, 12-lead electrocardiogram (ECG), clinical laboratory tests (hematology, blood chemistry, urinalysis), viral serology, and drug and alcohol screening. Male and female subjects of childbearing potential were required to use adequate contraception over the course of the clinical trial. […] Only subjects who met all inclusion and none of the exclusion criteria prior to administration of the investigational product were enrolled into the study (no exemptions were granted). A total of 64 subjects were enrolled (eight cohorts of eight subjects each). In each of the eight cohorts, six subjects were randomized to receive a single dose of UV-4 (3 to 1000 mg, depending on cohort) as the hydrochloride salt, and two subjects to receive placebo. Cohort size of six active subjects was based on analysis that increasing cohort size above six in a first-in-human study gains little in the ability to observe a drug induced event, and results in observing more events that are not related to study drug. Two of the eight subjects in each cohort (sentinel subjects; one active and one placebo) received their doses at least 48 h before the remaining subjects in each cohort.
On each day of use, bulk drug substance (UV-4B for solubilization, SAI Life Sciences Ltd. Telangana, India) was removed from a single-use container, weighed at the study center, and solubilized in 20 mL sterile water for injection (SWFI) (Hospira Inc. Illinois, United States of America). Weight of solid drug substance was converted to dose of UV-4 by applying purity and salt correction factor per pharmacy manual when preparing the dosing solution. UV-4B solution was administered orally with 10 mL of taste-masking agent, OraSweet-SF (Paddock Laboratories LLC, Minneapolis, United States of America) in a total volume of 30 mL, to assist in maintaining study blinding. Placebo was SWFI (20 mL) plus OraSweet-SF (10 mL). Concentrations and doses were calculated and expressed as the active free base form, UV-4. This methodology is consistent with USP<1121>, which recommends that the strength of a drug product or preparation is expressed in terms of the active moiety. Following consumption of active or placebo solution, the dosing container was rinsed with 50 mL of tap water also consumed by subjects. […]

Structure (SMILES): COCCCCCCCCCN1C[C@H](O)[C@@H](O)[C@H](O)[C@H]1CO [UV4]
- CONCENTRATION UV4 (Cohort 2, nominal day 1, nominal hour 0): <LLOQ (0.500) ng/mL
- CONCENTRATION UV4 (Cohort 3, nominal day 1, nominal hour 0): <LLOQ (0.500) ng/mL
- CONCENTRATION UV4 (Cohort 4, nominal day 1, nominal hour 0): <LLOQ (0.500) ng/mL
- CONCENTRATION UV4 (Cohort 4, nominal day 1, nominal hour 0, individual subjects): <LLOQ (0.500) ng/mL and 0.569 ng/mL and 1.02 ng/mL
- CONCENTRATION UV4 (Cohort 4, nominal day 1, nominal hour 0, subjects with all post-dose samples <LLOQ (treatment arm not given)): 0.657 ng/mL
- CONCENTRATION UV4 (Cohort 4, nominal day 1, nominal hour 0.5): <LLOQ (0.500) ng/mL
- CONCENTRATION UV4 (Cohort 4, nominal day 1, nominal hour 0.5, individual subjects): 439 ng/mL and 598 ng/mL and 942 ng/mL and 1250 ng/mL and 160 ng/mL
- CONCENTRATION UV4 (Cohort 4, nominal day 1, nominal hour 0.5, subjects with all post-dose samples <LLOQ (treatment arm not given)): <LLOQ (0.500) ng/mL
- CONCENTRATION UV4 (Cohort 4, nominal day 1, nominal hour 1): <LLOQ (0.500) ng/mL
- CONCENTRATION UV4 (Cohort 4, nominal day 1, nominal hour 1, individual subjects): 589 ng/mL and 571 ng/mL and 858 ng/mL and 762 ng/mL and 642 ng/mL
- CONCENTRATION UV4 (Cohort 4, nominal day 1, nominal hour 1, subjects with all post-dose samples <LLOQ (treatment arm not given)): <LLOQ (0.500) ng/mL
- CONCENTRATION UV4 (Cohort 4, nominal day 1, nominal hour 1.5): <LLOQ (0.500) ng/mL
- CONCENTRATION UV4 (Cohort 4, nominal day 1, nominal hour 1.5, individual subjects): 754 ng/mL and 487 ng/mL and 860 ng/mL and 621 ng/mL and 699 ng/mL
- CONCENTRATION UV4 (Cohort 4, nominal day 1, nominal hour 1.5, subjects with all post-dose samples <LLOQ (treatment arm not given)): <LLOQ (0.500) ng/mL
- CONCENTRATION UV4 (Cohort 4, nominal day 1, nominal hour 2): <LLOQ (0.500) ng/mL
- CONCENTRATION UV4 (Cohort 4, nominal day 1, nominal hour 2, individual subjects): 583 ng/mL and 406 ng/mL and 636 ng/mL and 479 ng/mL and 610 ng/mL
- CONCENTRATION UV4 (Cohort 4, nominal day 1, nominal hour 2, subjects with all post-dose samples <LLOQ (treatment arm not given)): <LLOQ (0.500) ng/mL
- CONCENTRATION UV4 (Cohort 4, nominal day 1, nominal hour 2.5): <LLOQ (0.500) ng/mL
- CONCENTRATION UV4 (Cohort 4, nominal day 1, nominal hour 2.5, individual subjects): 516 ng/mL and 439 ng/mL and 447 ng/mL and 365 ng/mL and 519 ng/mL
- CONCENTRATION UV4 (Cohort 4, nominal day 1, nominal hour 2.5, subjects with all post-dose samples <LLOQ (treatment arm not given)): <LLOQ (0.500) ng/mL
- CONCENTRATION UV4 (Cohort 4, nominal day 1, nominal hour 3): <LLOQ (0.500) ng/mL
- CONCENTRATION UV4 (Cohort 4, nominal day 1, nominal hour 3, individual subjects): 495 ng/mL and 428 ng/mL and 393 ng/mL and 327 ng/mL and 437 ng/mL
- CONCENTRATION UV4 (Cohort 4, nominal day 1, nominal hour 3, subjects with all post-dose samples <LLOQ (treatment arm not given)): <LLOQ (0.500) ng/mL
- CONCENTRATION UV4 (Cohort 4, nominal day 1, nominal hour 4): <LLOQ (0.500) ng/mL
- CONCENTRATION UV4 (Cohort 4, nominal day 1, nominal hour 4, individual subjects): 368 ng/mL and 298 ng/mL and 302 ng/mL and 236 ng/mL and 338 ng/mL
- CONCENTRATION UV4 (Cohort 4, nominal day 1, nominal hour 4, subjects with all post-dose samples <LLOQ (treatment arm not given)): <LLOQ (0.500) ng/mL
- CONCENTRATION UV4 (Cohort 4, nominal day 1, nominal hour 6): <LLOQ (0.500) ng/mL
- CONCENTRATION UV4 (Cohort 4, nominal day 1, nominal hour 6, individual subjects): 184 ng/mL and 187 ng/mL and 216 ng/mL and 141 ng/mL and 189 ng/mL
- CONCENTRATION UV4 (Cohort 4, nominal day 1, nominal hour 6, subjects with all post-dose samples <LLOQ (treatment arm not given)): <LLOQ (0.500) ng/mL
- CONCENTRATION UV4 (Cohort 4, nominal day 1, nominal hour 9): <LLOQ (0.500) ng/mL
- CONCENTRATION UV4 (Cohort 4, nominal day 1, nominal hour 9, individual subjects): 101 ng/mL and 118 ng/mL and 128 ng/mL and 70.4 ng/mL and 77.3 ng/mL
- CONCENTRATION UV4 (Cohort 4, nominal day 1, nominal hour 9, subjects with all post-dose samples <LLOQ (treatment arm not given)): <LLOQ (0.500) ng/mL
- CONCENTRATION UV4 (Cohort 4, nominal day 1, nominal hour 12): <LLOQ (0.500) ng/mL
- CONCENTRATION UV4 (Cohort 4, nominal day 1, nominal hour 12, individual subjects): 54.3 ng/mL and 66.4 ng/mL and 79.7 ng/mL and 42.1 ng/mL and 37.6 ng/mL
- CONCENTRATION UV4 (Cohort 4, nominal day 1, nominal hour 12, subjects with all post-dose samples <LLOQ (treatment arm not given)): <LLOQ (0.500) ng/mL
- CONCENTRATION UV4 (Cohort 4, nominal day 1, nominal hour 18): <LLOQ (0.500) ng/mL
- CONCENTRATION UV4 (Cohort 4, nominal day 1, nominal hour 18, individual subjects): 18.1 ng/mL and 34.0 ng/mL and 43.3 ng/mL and 16.6 ng/mL
- CONCENTRATION UV4 (Cohort 4, nominal day 1, nominal hour 18, subjects with all post-dose samples <LLOQ (treatment arm not given)): <LLOQ (0.500) ng/mL
- CONCENTRATION UV4 (Cohort 4, nominal day 2, nominal hour 24, individual subjects): 12.5 ng/mL and 26.6 ng/mL and 30.8 ng/mL and 10.2 ng/mL
- CONCENTRATION UV4 (Cohort 4, nominal day 2, nominal hour 24, subjects with all post-dose samples <LLOQ (treatment arm not given)): <LLOQ (0.500) ng/mL
- CONCENTRATION UV4 (Cohort 4, nominal day 2, nominal hour 36, individual subjects): 4.31 ng/mL and 11.5 ng/mL and 12.0 ng/mL and 3.22 ng/mL
- CONCENTRATION UV4 (Cohort 4, nominal day 2, nominal hour 36, subjects with all post-dose samples <LLOQ (treatment arm not given)): <LLOQ (0.500) ng/mL
- CONCENTRATION UV4 (Cohort 4, nominal day 3, nominal hour 48, individual subjects): 2.04 ng/mL and 4.82 ng/mL and 6.34 ng/mL and 1.52 ng/mL
- CONCENTRATION UV4 (Cohort 4, nominal day 3, nominal hour 48, subjects with all post-dose samples <LLOQ (treatment arm not given)): <LLOQ (0.500) ng/mL
